target: Neuraminidase (Influenza A virus (A/Puerto Rico/8/1934(H1N1)), UniProt P03468); assay: Inhibition of Influenza A virus H1N1 neuraminidase using MU-NANA as substrate preincubated for 10 mins followed by substrate addition and measured after 15 mins by fluorescence based assay
Sequence (P03468 whole entry): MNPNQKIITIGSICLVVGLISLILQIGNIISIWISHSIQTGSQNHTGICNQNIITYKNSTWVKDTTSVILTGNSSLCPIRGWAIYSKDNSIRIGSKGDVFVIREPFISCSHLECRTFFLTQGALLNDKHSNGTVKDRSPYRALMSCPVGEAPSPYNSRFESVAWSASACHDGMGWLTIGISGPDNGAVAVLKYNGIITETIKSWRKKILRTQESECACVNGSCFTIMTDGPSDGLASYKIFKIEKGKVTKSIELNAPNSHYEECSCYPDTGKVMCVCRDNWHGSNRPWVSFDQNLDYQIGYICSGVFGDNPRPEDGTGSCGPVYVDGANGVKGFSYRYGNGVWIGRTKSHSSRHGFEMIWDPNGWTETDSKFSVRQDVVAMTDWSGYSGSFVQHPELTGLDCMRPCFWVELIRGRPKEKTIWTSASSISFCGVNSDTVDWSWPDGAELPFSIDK

Which IC50 does the source give for CC1=NN(c2cccc(C(=O)O)c2)C(=O)/C1=C\c1ccc(-c2cc(Cl)ccc2C(=O)O)o1 here?
Its IC50 is 37 µM.

target: not listed separately; assay: Inhibition of clostridium neuraminidase using fluorescent substrate preincubated for 2 mins followed by substrate addition and measured after 30 mins by fluorescence based microplate reader analysis

For O=C(N/N=C/c1cc(Cl)ccc1[N+](=O)[O-])c1cc(O)cc(O)c1, which IC50 is on record?
The IC50 was 3.71 µM.

With COc1cc(/C=N\NC(=O)c2ccc(Cn3cc(Br)c([N+](=O)[O-])n3)o2)cc(OC)c1O as the compound, how does the IC50 read?
The IC50 was 12.9 µM.

With COc1ccc(Br)cc1C(=O)N/N=C/c1ccc(Oc2ccc([N+](=O)[O-])cc2C#N)cc1 as the compound, how does the IC50 read?
The IC50 was 7.71 µM.

Which IC50 does the source give for COc1cc(/C=N/NC(=O)c2cc(O)cc(O)c2)cc(OC)c1O here?
The IC50 was 14.8 µM.

With O=C(N/N=C/c1cc(Cl)ccc1[N+](=O)[O-])c1cc(O)c(O)c(O)c1 as the compound, how does the IC50 read?
The IC50 was 10.6 µM.

With COc1cc(/C=N/NC(=O)c2cc(O)cc(O)c2)ccc1O as the compound, how does the IC50 read?
Its IC50 is 11.6 µM.

For O=C(N/N=C/c1ccc(F)c([N+](=O)[O-])c1)c1cc(O)cc(O)c1, which IC50 is on record?
Its IC50 is 5.47 µM.

For O=C(N/N=C/c1cc([N+](=O)[O-])ccc1F)c1cc(O)c(O)c(O)c1, which IC50 is on record?
Its IC50 is 36.6 µM.

With O=C(N/N=C/c1ccc(O)c([N+](=O)[O-])c1)c1cc(O)cc(O)c1 as the compound, how does the IC50 read?
The IC50 was 0.21 µM.

For O=C(N/N=C/c1ccc(F)c([N+](=O)[O-])c1)c1cc(O)c(O)c(O)c1, which IC50 is on record?
The IC50 was 22.7 µM.

With O=C(N/N=C/c1cc([N+](=O)[O-])ccc1F)c1cc(O)cc(O)c1 as the compound, how does the IC50 read?
The IC50 was 3.97 µM.

Which IC50 does the source give for CCC(CC)O[C@@H]1C=C(C(=O)O)C[C@H](N)[C@H]1NC(C)=O [OSELTAMIVIR CARBOXYLATE] here?
Its IC50 is 3.04 µM.

For CCOC(=O)c1ccc(N/N=C/c2cc(Br)cc([N+](=O)[O-])c2O)cc1, which IC50 is on record?
The IC50 was 16 µM.

Which IC50 does the source give for O=C(N/N=C/c1cc([N+](=O)[O-])ccc1O)c1cc(O)cc(O)c1 here?
The IC50 was 1.92 µM.

Which IC50 does the source give for O=C(N/N=C/c1ccc(OS(=O)(=O)c2ccccc2)cc1)c1cccc([N+](=O)[O-])c1 here?
Its IC50 is 8.44 µM.

Which IC50 does the source give for CC(=O)Nc1ccc(/C=N/NC(=O)c2cc(O)cc(O)c2)cc1 here?
The IC50 was 13.8 µM.

Which IC50 does the source give for O=C(N/N=C/c1ccc(O)c([N+](=O)[O-])c1)c1cc(O)c(O)c(O)c1 here?
Its IC50 is 9.67 µM.

From ChEMBL document CHEMBL4312043, “Discovery of Novel Neuraminidase Inhibitors by Structure-Based Virtual Screening, Structural Optimization, and Bioassay” (ACS Med Chem Lett, 2019)
